± gives the expanded uncertainty stated by the source.
Settings: Liquid; for mass density: 101.33 kPa

Structure (SMILES)	mass density (298.15 K) [kg/m3]	vapor or sublimation pressure (298.15 K) [kPa]	mass density (328.15 K) [kg/m3]	vapor or sublimation pressure (328.15 K) [kPa]
C1COCO1 [1,3-dioxolane]	1058.62 ± 0.71	13.54 ± 0.14	1039.88 ± 0.64	49.01 ± 0.19
C1COCCO1 [1,4-dioxane]	1027.87 ± 0.6	4.9 ± 0.13	1010.69 ± 0.53	19.54 ± 0.15
CCCCCCCl [1-chlorohexane]	873.5	1.255 ± 0.13	859.01	5.965 ± 0.13
C1CCOC1 [tetrahydrofuran]	881.95 ± 0.45	21.61 ± 0.15	865.36 ± 0.49	70.61 ± 0.22
C1CCOCC1 [tetrahydropyran]	878.81 ± 0.81	9.56 ± 0.14	863.67 ± 0.85	33.95 ± 0.17
